Earlier results in US20050137198A1, “Stable hydrazalazine pharmaceutical compositions” (priority 2003, published 2005).
Like-named read-outs stand apart in the source and are kept apart here.

System: vascular smooth muscle

SMILES: NNc1nncc2ccccc12 [Hydralazine, 1-hydrazinophthalazine]
- onset of action (given intravenously): 10 to 20 min
- duration of action (in vivo): 3 to 4 h
- onset of action (in vivo): 10 to 30 min
- time of maximum hypotensive effect (in vivo): 10 to 80 min
